Experimental data from patent US20240197655A1 (REPUBLIC OF KOREA(MASAN NATIONAL TUBERCULOSIS HOSPITAL), priority 2021, published 2024).
Values after ≈ are worked out from the molar mass of the structure shown. Counter-ions that a name gives are not always drawn.

Assays:
THP-1 cells [1] = tested on: THP-1 cells
Protocol: (§1) THP-1 cells were treated with phorbol 12-myristate 13-acetate (PMA; Sigma-Aldrich, USA) at a final concentration of 50 nM for 40 hours. Infection with M. abscessus containing pTEC15 green fluorescence or luciferase was performed at 37° C. in the presence of 5% CO2 at a multiplicity of […] (MOI) of 2:1 for 3 hours. After extensive washing with PBS, the cells were incubated in a culture medium containing […] of gentamicin for 30 minutes and washed again with PBS. […] Macrophages were stained with SYTO 60 (Invitrogen, USA) dye at a final concentration of 5 μM at 37° C. in a 5% CO2 atmosphere for 30 minutes. On the day 4, luminescence was measured with a Synergy H1 microplate reader (Bio-Tek, USA). The fluorescence microscopic images of living cells were captured with a Lionheart™ FX automated microscope (BIO-Tek, USA). The Gen5™ 3.05 software object feature was available for identification of the cells in the imaging field.
(§2) The use of a double read assay results in dose-response curves for both inhibition for M. abscessus and cytotoxicity to THP-1 cells as determined in a same experiment. […] The cytotoxicity was determined using a SYTO 60 probe.

[2] = tested on: human colonic epithelial cells (HCT-8); assay: WST-8 cell viability and LDH cytotoxicity assay; format: cell-based; settings: HCT-8, 24 hours, FIG. 7
Protocol: (§3) THP-1 (ATCC TIB-202) and HCT-8 (ATCC CCL-244) cells were measured in regards to cell viability and cytotoxicity of CC using a WST-8 cell viability assay kit (MediFab, S. Korea) and a CytoTox 96® non-radioactive cytotoxicity assay kit (Promega, Madison, WI, USA), respectively. Differentiated THP-1 cells (1.0×10^5 cells/well) and HCT-8 cells (2.0×10^4 cells/well) were placed in 96-well plates and incubated at 37° C. for 24 hours. Here, CC was added to the cells at different concentrations. For cell viability assay, 10 μL of the reagent (10% medium volume) was added to each well, followed by incubation for 4 hours. The resulting color was measured at 450 nm. For LDH cytotoxicity assay, 50 μL of a reagent for LDH detection was added to each well, and incubation was performed in the dark for 30 minutes. The resulting color was measured at 490 nm. In this regard, the cells treated with 1% Triton™ X-100 were used as a positive control, and those treated with DMSO were all tested negative in both experiments.

THP-1 cells [3] = assay: WST-8 cell viability and LDH cytotoxicity assay; format: cell-based, human; settings: THP-1, 24 hours, FIG. 7
Protocol: as §3

[4] = tested on: M. abscessus (ATCC 19997); settings: known value used for selecting resistant mutants; cited from earlier work
[5] = tested on: M. abscessus (ATCC 19997); assay: Resazurin (REMA) broth microdilution dose-response, aerobic culture; format: cell-based, Mycobacterium abscessus
Protocol: Three strains of M. abscessus (ATCC 19997), M. avium (ATCC 25291) and M. intracellulare (ATCC 13950) were cultured at 37° C. in Middlebrook 7H9 broth (BD, 27130) supplemented with 10% OADC (BD, 212240), 0.5% glycerol and 0.05% Tween-80.
The minimum inhibitory concentration (MIC) was determined according to the guideline by the CLSI (Clinical & Laboratory Standards Institute). The CLSI broth microdilution method recommended by MH was used with an inoculum having an OD of 0.001/ml in the exponential phase of growth.
Then, incubation was carried out at 37° C. for 3 hours, followed by adding 40 mL of 0.025% resazurin. After incubation overnight, the fluorescence of resorufin (metabolite resazurin) was measured with a Synergy H1 Hybrid Multi-Mode Reader (Bio-Tek, VT, USA). IC50 values were calculated from raw fluorescence data using Prism 5.0 software (GraphPad Inc., La Jolla, CA, USA). Experiments were performed in triplicates.

[6] = tested on: M. abscessus in biofilm culture; assay: Biofilm assay (Calgary Biofilm Device, MBEC Assay); format: cell-based, Mycobacterium abscessus
Protocol: The first biofilm assay system was the Calgary Biofilm Device used by Bardouniotis et al. to evaluate the bactericidal activity or minimum biofilm eradication concentration (MBEC) of a biocidal active substance against Mycobacterium phlei. In the present invention, MBEC Assay® (Innovotech, Edmonton, Canada) for MBEC measurement was used. Biofilm formation was performed as follows. […] Then, the 96-well microliter plate was covered with a 96-peg lid and incubated for 4 days. After washing, the bacteria remaining on the biofilms were removed from the wells by ultrasonication in the medium. Finally, after incubation, the adherent bacteria remaining on the biofilms with or without antibiotics were quantified with resazurin.

[7] = tested on: clarithromycin-resistant M. abscessus mutants (M. abscessus CLR-R); assay: REMA dose-response against clarithromycin-resistant mutants; format: cell-based, Mycobacterium abscessus; settings: mutant produced in presence of 100 mg/L CLR, FIG. 3
Protocol: (§4) Experiments were performed in triplicates.
It was also tested to determine whether CC inhibits the growth of the drug-resistant strains produced in the present invention in the presence of high concentration (100 mg/L) CLR used for therapy against M. abscessus. […] Accordingly, CC is considered as an active drug for the treatment of CLR-resistant M. abscessus.

biofilm-forming microbes = settings: Munoz-Egea et al.; cited from earlier work
[8] = tested on: M. abscessus (lux) in THP-1 cells; format: cell-based, Mycobacterium abscessus; settings: THP-1 infection, data not shown
Protocol: as §1, §2

[9] = tested on: M. abscessus (ATCC 19997) under anaerobic conditions; assay: Resazurin dose-response under anaerobic non-replicating culture; format: cell-based, Mycobacterium abscessus
Protocol: In order to determine the antibiotic ability against M. abscessus (ATCC 19997) under anaerobic conditions, a bacterial culture (5×10^6 bacteria/mL) was inoculated into 5 mL of 7H9 broth (BD, 271310) supplemented with 10% OADC. The bacterial culture was placed in an anaerobic jar (BD BBLIM GasPAK™ Jar; Franklin Lakes, NJ, USA). Here, a BD BBLIM GasPAK™ anaerobic indicator (methylene blue for monitoring oxygen depletion) was used. The bacteria were cultured in cation-adjusted Mueller-Hinton broth (MH; Sigma-Aldrich, 90922) for drug susceptibility testing.
as §4
A comparison was made between the growth rates under aerobic, anaerobic and restored aerobic conditions in a same culture medium.

Compound | cytotoxicity to THP-1 cells (THP-1 cells [1]) | effect on cell viability [2] | effect on cell viability (THP-1 cells [3]) | known MIC value [4] [mg/L] | general MIC [5] [µg] | IC50 ([5]; Mycobacteroides abscessus, ATCC19997, aerobic culture conditions, FIG. 4) [µg/mL] | MBEC relative to general MIC ([6]; MBEC vs MIC) | IC50 ([6]; Mycobacteroides abscessus, biofilm culture, FIG. 4) [µg/mL] | MBEC for M. abscessus ([6]; biofilm) | resistance of produced mutant to CLR [7] | MBEC relative to MIC (biofilm-forming microbes) | effect on intracellular bacterial replication [8] | IC50 ([9]; Mycobacteroides abscessus, ATCC19997, anaerobic culture conditions, FIG. 4) [µg/mL] | shift of the IC50 value, anaerobic versus aerobic ([9]; anaerobic vs aerobic culture) [fold]
CCN(CC)CCOc1ccc(C(=C(Cl)c2ccccc2)c2ccccc2)cc1 [CC, clomiphene citrate] | without cytotoxicity | no harm on the viability | no harm on the viability | – | – | – | – | – | – | – | – | – | – | –
CC[C@H]1OC(=O)[C@H](C)[C@@H](O[C@H]2C[C@@](C)(OC)[C@@H](O)[C@H](C)O2)[C@H](C)[C@@H](O[C@@H]2O[C@H](C)C[C@H](N(C)C)[C@H]2O)[C@](C)(OC)C[C@@H](C)C(=O)[C@H](C)[C@@H](O)[C@]1(C)O [CLR, clarithromycin] | – | – | – | 0.1 | 0.46 | 0.046 (≈ 0.0615 µM) | 2,000 fold | > 100 | above 100 μg | high drug resistance | 100,000 fold | prevented bacterial replication | 0.0778 (≈ 0.104 µM) | 2
